Experimental data: patent publication US8524696B2, “Water-soluble compositions of bioactive lipophilic compounds” (priority 1999, dated 2013)

Legend:
[1] = Storage stability of water-soluble compositions and their aqueous solutions; assay type: physicochemical; conditions: in water or saline; refrigerated or frozen as stated
[2] = Systemic release of vitamin E following administration of PTS (plasma alpha-tocopherol by HPLC); assay type: in vivo, Sprague Dawley male rats; conditions: for Concentration of α-tocopherol in rat blood plasma: PTS 50 mg/kg
Description: PTS, dissolved in water (50 mg/ml), was administered to Sprague Dawley male rats (300-350 g) either orally or intravenously at a dose of 50 mg/kg body weight. Heparinized blood samples were collected at 0, 3, 8 and 24 hr following PTS administration. Blood plasma samples were obtained and analyzed for the content of alpha-tocopherol using an HPLC method using a Supercosil DB column and a mobile phase of ethanol:methanol (80:20 v/v) at a flow rate of 1 ml/min. Beckman System Karat software was used for data quantification.

[3] = test system: spontaneously hypertensive rats (SHR); assay: Ischemia/reperfusion, middle cerebral artery occlusion model (MCAO), TTC staining; assay type: in vivo, rat; conditions: CoQ10 treatment postischemically
[4] = test system: Human teratocarcinoma NT2; assay: Protection against hypoxia, cell viability by trypan blue exclusion; assay type: cell-based; conditions: 10 mg/ml as PTS formulation, 3 days; 17.5 hours anaerobic, glucose-free
Description: The flasks were sealed in an anaerobic chamber containing Gas Pak Plus gas generator envelopes and were incubated in the anaerobic conditions at 37° C. for 17.5 hours in glucose-free medium. Following the hypoxic treatment the cells were placed again in the complete medium (with and without CoQ10 or vitamin E) and were analysed either immediately (time 0) or were cultured for the additional 24 hr under the normoxic conditions. Cell viability was measured by trypan blue exclusion assay. […]

[5] = test system: red blood cells (RBC) isolated from Balb/c mice; assay: In vitro haemolysis of red blood cells (RBC); assay type: cell-based, mouse; conditions: 0.3% Triton X-100, 1 h at 37° C., taken as 100% haemolysis (Table 17 reference column)

Question: With `CC1=C(/C=C/C(C)=C/C=C/C(C)=C/C=C/C=C(C)/C=C/C=C(C)/C=C/C2=C(C)C(=O)[C@@H](O)CC2(C)C)C(C)(C)C[C@H](O)C1=O` [Astaxanthin] as the compound, how does the “stability of aqueous solutions” value [1] read?
Answer: remained stable for several months

Question: Which “Concentration of α-tocopherol in rat blood plasma” value (“Concentration of α-tocopherol” for short) ([2]; Intravenous administration, 3 hours) does the source give for “polyoxyethanyl-α-tocopheryl sebacate [PTS]” here?
Answer: 18.48 ± 2.40 (n = 3) μg/ml

Question: And the “Concentration of α-tocopherol” value ([2]; Intravenous administration, 8 hours)?
Answer: 11.19 ± 3.11 (n = 3) μg/ml

Question: What about the “Concentration of α-tocopherol” value ([2]; Intravenous administration, 24 hours) of the same compound?
Answer: 10.59 ± 1.48 (n = 3) μg/ml

Question: And the “Concentration of α-tocopherol” value ([2]; Oral administration, 3 hours)?
Answer: 8.65 ± 1.40 (n = 3) μg/ml

Question: And the “Concentration of α-tocopherol” value ([2]; Oral administration, 8 hours)?
Answer: 9.33 ± 2.10 (n = 3) μg/ml

Question: And the “Concentration of α-tocopherol” value ([2]; Oral administration, 24 hours)?
Answer: 8.31 ± 0.60 (n = 3) μg/ml

Question: And the “plasma content of α-tocopherol after PTS (systemic conversion to vitamin E)” value ([2]; oral or intravenous PTS, rat)?
Answer: Elevated

Question: For `COC1=C(OC)C(=O)C(C/C=C(\C)CC/C=C(\C)CC/C=C(\C)CC/C=C(\C)CC/C=C(\C)CC/C=C(\C)CC/C=C(\C)CC/C=C(\C)CC/C=C(\C)CCC=C(C)C)=C(C)C1=O` [CoQ10, Coenzyme Q10], which “protective effects against ischemia-induced tissue damage” value [3] is on record?
Answer: clearly evident

Question: What about the “percentage of death during the 24 hr recovery period from hypoxia” value [4] of the same compound?
Answer: reduced by half

Question: Which “percentage of death during the 24 hr recovery period from hypoxia” value [4] does the source give for `Cc1c(C)c2c(c(C)c1O)CC[C@@](C)(CCC[C@H](C)CCC[C@H](C)CCCC(C)C)O2` [Vitamin E, α-(+)-tocopherol] here?
Answer: reduced by half

Question: For Triton X-100, which “Percentage of lysed Cells” value [5] is on record?
Answer: 100.0%
